Values quoted from earlier work in patent US8263648B2, “Diebenzofuran derivatives as inhibitors of PDE-4 and PDE-10” (Mylan Laboratories Ltd., priority 2006, dated 2012).

Legend:
PDE10A1 = PDE10A1 (Homo sapiens, UniProt Q9Y233); conditions: substrate of PDE10A1, a splice variant of PDE10
[1] = oral dosages of up to 100 mg/kg

Sequence of PDE10A1 (Q9Y233 1-779 isoform Q9Y233-1): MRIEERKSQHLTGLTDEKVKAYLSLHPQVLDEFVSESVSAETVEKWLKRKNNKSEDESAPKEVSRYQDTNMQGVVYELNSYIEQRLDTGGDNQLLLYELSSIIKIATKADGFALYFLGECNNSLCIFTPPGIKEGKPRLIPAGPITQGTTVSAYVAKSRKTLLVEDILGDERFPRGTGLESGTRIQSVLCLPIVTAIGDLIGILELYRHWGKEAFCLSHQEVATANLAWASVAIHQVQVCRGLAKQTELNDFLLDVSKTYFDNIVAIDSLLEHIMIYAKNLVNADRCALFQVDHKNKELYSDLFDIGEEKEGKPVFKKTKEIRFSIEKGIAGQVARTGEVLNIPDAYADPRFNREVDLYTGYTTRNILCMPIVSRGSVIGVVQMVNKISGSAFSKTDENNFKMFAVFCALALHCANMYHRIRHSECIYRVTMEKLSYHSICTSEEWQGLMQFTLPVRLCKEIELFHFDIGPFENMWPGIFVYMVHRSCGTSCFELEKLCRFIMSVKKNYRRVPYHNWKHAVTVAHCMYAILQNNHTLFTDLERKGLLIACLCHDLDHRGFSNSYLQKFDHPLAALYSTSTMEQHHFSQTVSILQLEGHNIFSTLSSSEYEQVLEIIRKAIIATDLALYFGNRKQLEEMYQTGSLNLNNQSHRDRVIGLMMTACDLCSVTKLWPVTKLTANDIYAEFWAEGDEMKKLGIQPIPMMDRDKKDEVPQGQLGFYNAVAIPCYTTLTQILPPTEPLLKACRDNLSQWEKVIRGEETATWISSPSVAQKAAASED

Km (PDE10A1) [µM]	SMILES	emetic effect [1]
3	Nc1nc2c(ncn2[C@@H]2O[C@@H]3COP(=O)(O)O[C@H]3[C@H]2O)c(=O)[nH]1 [cGMP]	
	CS(=O)(=O)Nc1ccc2oc3c(OC(F)F)ccc(C(=O)Nc4c(Cl)cncc4Cl)c3c2c1 [GRC3886]	no emetic effect
